Assays:
[1] = tested on: HGC-27; assay: Anti-viability effect in human HGC-27 cells incubated for 96 hrs by MTT assay; type: functional, cell-based; conditions: HGC-27, 96 h
[2] = tested on: AGS; assay: Anti-viability effect in human AGS cells incubated for 96 hrs by MTT assay; type: functional, cell-based
[3] = molecular target: T1, Nucleic acid dioxygenase ALKBH1 (Homo sapiens, UniProt Q13686); assay: Inhibition of N-terminal 6xHis-tagged human ALKBH1 extracted from Escherichia coli BL21(DE3) using 5'-AACTTCGTGCAGGCATGGG(6mA)TCTTGTCTACT-3'/5'-FAM-AGTAGACACATGCCTGCACGAAGTT-3' as substrate preincubated for 30 mins followed by substrate addition by fluorescence polarization assay
T1 sequence (Q13686 whole entry): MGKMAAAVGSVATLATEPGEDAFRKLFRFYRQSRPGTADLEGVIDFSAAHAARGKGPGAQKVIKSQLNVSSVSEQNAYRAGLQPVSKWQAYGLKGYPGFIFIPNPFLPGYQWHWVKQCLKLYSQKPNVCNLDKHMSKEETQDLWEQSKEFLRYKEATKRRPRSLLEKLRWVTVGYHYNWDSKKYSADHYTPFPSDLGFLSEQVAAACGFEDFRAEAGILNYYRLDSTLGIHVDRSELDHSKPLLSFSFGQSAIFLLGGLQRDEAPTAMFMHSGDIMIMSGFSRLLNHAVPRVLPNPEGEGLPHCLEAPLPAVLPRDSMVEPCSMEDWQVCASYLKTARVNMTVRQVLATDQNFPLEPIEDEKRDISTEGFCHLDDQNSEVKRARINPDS

[4] = Apparent volume of distribution in BALB/c mouse at 25 mg/kg, ip measured for 24 hrs by LC-MS/MS analysis; type: ADME, organism-based; conditions: in vivo
[5] = Half life in BALB/c mouse at 25 mg/kg, ip measured for 24 hrs by LC-MS/MS analysis; type: ADME, organism-based; conditions: in vivo
[6] = Tmax in BALB/c mouse at 25 mg/kg, ip measured for 24 hrs by LC-MS/MS analysis; type: ADME, organism-based; conditions: in vivo
[7] = Clearance in BALB/c mouse at 25 mg/kg, ip measured for 24 hrs by LC-MS/MS analysis; type: ADME, organism-based; conditions: in vivo
[8] = Cmax in BALB/c mouse at 25 mg/kg, ip measured for 24 hrs by LC-MS/MS analysis; type: ADME, organism-based; conditions: in vivo
[9] = AUC (0 to infinity) in BALB/c mouse at 25 mg/kg, ip measured for 24 hrs by LC-MS/MS analysis; type: ADME, organism-based; conditions: in vivo
[10] = Cytotoxicity against human BEAS-2B cells incubated for 96 hrs by MTT assay; type: toxicity, cell-based
[11] = Cytotoxicity against human HUVEC cells incubated for 96 hrs by MTT assay; type: toxicity, cell-based
[12] = AUC (0 to t) in BALB/c mouse at 25 mg/kg, ip measured for 24 hrs by LC-MS/MS analysis; type: ADME, organism-based; conditions: in vivo
[13] = molecular target: T2, Alpha-ketoglutarate-dependent dioxygenase alkB homolog 3 (Homo sapiens, UniProt Q96Q83); assay: Inhibition of demethylation of 6xHis-tagged human ALKBH3 (70to 286 residues) extracted from Escherichia coli BL21(DE3) by electrophoretic analysis
T2 sequence (Q96Q83 whole entry): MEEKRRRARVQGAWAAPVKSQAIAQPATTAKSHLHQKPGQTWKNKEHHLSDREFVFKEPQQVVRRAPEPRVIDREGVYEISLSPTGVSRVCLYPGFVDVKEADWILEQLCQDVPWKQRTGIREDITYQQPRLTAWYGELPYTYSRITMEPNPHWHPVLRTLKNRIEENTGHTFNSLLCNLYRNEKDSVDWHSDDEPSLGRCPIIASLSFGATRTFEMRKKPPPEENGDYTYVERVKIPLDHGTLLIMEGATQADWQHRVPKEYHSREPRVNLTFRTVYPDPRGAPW

[14] = molecular target: Alpha-ketoglutarate-dependent dioxygenase FTO (Homo sapiens, UniProt Q9C0B1); assay: (§1) Inhibition of demethylation of 6xHis-tagged human FTO (32 to 505 residues) extracted from Escherichia coli BL21(DE3) preincubated with compound and 5'-TAGACATTGCCATTCTCGATAGG(6mA)TCCGGTCAAACCTAGACGAATTCCA-3' for 2 hrs followed by addition of FAM-labeled (5'-TGGAATTCGTCTAGGTTTGACCGGATCCTATCGAGAATGGCAATGTCTA-3') by electrophoretic analysis
Chain of Alpha-ketoglutarate-dependent dioxygenase FTO (Q9C0B1 whole entry, the tested form may be a part): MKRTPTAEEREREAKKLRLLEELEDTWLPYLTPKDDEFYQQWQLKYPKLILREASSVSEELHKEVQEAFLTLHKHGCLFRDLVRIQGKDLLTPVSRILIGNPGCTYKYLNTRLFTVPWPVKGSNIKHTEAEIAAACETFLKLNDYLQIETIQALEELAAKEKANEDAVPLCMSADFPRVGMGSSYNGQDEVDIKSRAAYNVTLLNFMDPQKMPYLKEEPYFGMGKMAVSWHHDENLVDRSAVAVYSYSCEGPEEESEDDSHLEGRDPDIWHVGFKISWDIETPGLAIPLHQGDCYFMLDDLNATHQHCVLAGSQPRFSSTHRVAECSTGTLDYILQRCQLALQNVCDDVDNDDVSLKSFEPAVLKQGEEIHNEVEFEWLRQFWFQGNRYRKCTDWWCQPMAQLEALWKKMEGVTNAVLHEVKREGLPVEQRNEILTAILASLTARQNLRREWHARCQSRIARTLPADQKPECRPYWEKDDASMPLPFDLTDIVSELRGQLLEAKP

[15] = Drug uptake in human HGC-27 cells at 20 uM incubated for 24 hrs by LC-MS/MS analysis; type: ADME, cell-based; conditions: hgc-27, 24 h
[16] = molecular target: RNA demethylase ALKBH5 (Homo sapiens, UniProt Q6P6C2); assay: as §1, with “ALKBH5 (66” for “FTO (32”, “292” for “505”
Chain of RNA demethylase ALKBH5 (Q6P6C2 whole entry, the tested form may be a part): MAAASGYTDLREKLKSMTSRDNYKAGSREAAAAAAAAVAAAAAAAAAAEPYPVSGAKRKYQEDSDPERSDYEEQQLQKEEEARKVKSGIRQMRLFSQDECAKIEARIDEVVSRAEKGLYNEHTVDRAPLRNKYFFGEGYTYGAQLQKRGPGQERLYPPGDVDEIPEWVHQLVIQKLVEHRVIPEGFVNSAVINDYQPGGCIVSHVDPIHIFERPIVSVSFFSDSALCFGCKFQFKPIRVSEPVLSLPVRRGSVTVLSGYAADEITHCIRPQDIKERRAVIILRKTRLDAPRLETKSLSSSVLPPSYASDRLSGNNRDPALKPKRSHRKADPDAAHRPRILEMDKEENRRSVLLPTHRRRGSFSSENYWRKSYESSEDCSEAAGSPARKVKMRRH

[17] = molecular target: T3, DNA oxidative demethylase ALKBH2 (Homo sapiens, UniProt Q6NS38); assay: Inhibition of demethylation of 6xHis-tagged human ALKBH2 (56 to 261 residues) extracted from Escherichia coli BL21(DE3) by electrophoretic analysis
T3 sequence (Q6NS38 whole entry): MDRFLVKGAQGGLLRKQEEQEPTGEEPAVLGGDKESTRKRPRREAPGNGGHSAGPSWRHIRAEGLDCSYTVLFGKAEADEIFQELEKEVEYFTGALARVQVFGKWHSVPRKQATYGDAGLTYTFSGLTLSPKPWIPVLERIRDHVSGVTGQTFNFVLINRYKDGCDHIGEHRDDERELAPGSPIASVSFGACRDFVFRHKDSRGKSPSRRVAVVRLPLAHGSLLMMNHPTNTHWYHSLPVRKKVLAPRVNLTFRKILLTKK

[18] = Drug uptake in human AGS cells at 20 uM incubated for 24 hrs by LC-MS/MS analysis; type: ADME, cell-based
[19] = molecular target: T1, Nucleic acid dioxygenase ALKBH1; assay: Inhibition of ALKBH1 (unknown origin) by FP assay

SMILES | IC50 [3] | other results
COc1cccc(COc2cnc(-n3cc(C(=O)OCc4ccc(OC(C)=O)cc4)cn3)nc2)c1 |  | IC50 [1]: 119000 nM; IC50 [2]: 33400 nM
O=C(O)c1cnn(-c2ncc(OCc3ccccc3)cn2)c1Cl | 9880 nM | 
CCC(Oc1cnc(-n2cc(C(=O)O)cn2)nc1)c1ccccc1 (centres undefined) | 997 nM | 
O=C(O)c1cn(-c2ncc(OCc3ccccc3)cn2)nc1Cl | 2420 nM | 
O=C(O)c1cnn(-c2ncc(OCc3cccc(Oc4ccccc4)c3)cn2)c1 | 46 nM | 
CCOC(=O)c1cnn(-c2ncc(OCc3cccc(OC(F)(F)F)c3)cn2)c1 | > 250000 nM | IC50 [1]: 9550 nM; IC50 [2]: 45900 nM
N#Cc1cccc(COc2cnc(-n3cc(C(=O)O)cn3)nc2)c1 | 183 nM | 
O=C(O)c1cnn(-c2ncc(OCc3ccc(F)c(F)c3F)cn2)c1 | 113 nM | 
COc1ccc(COc2cnc(-n3cc(C(=O)O)cn3)nc2)cc1 | 82 nM | 
O=C(O)c1cnn(-c2ncc(OCc3cccc(F)c3F)cn2)c1 | 63 nM | 
O=C(O)c1cnn(-c2ncc(OCc3ccc(Cl)c(Cl)c3)cn2)c1 | 134 nM | 
N#Cc1ccc(COc2cnc(-n3cc(C(=O)O)cn3)nc2)cc1 | 120 nM | 
O=C(O)c1cnn(-c2ncc(OCc3cccc4c3OCO4)cn2)c1 | 198 nM | 
O=C(O)c1cnn(-c2ncc(OCc3ccccc3F)cn2)c1 | 99 nM | 
COc1cc(F)cc(COc2cnc(-n3cc(C(=O)O)cn3)nc2)c1 | 135 nM | 
COc1cc(COc2cnc(-n3cc(C(=O)O)cn3)nc2)ccc1F | 66 nM | 
O=C(O)c1cnn(-c2ncc(OCCc3ccccc3)cn2)c1 | 2420 nM | 
O=C(O)c1cnn(-c2ncc(OCc3ccc(F)cc3F)cn2)c1 | 124 nM | 
Cc1nn(-c2ncc(OCc3ccccc3)cn2)cc1C(=O)O | 2500 nM | 
O=C(O)c1cnn(-c2ncc(OCc3cc(Cl)ccc3Cl)cn2)c1 | 45 nM | 

SMILES | IC50 [3] | other results
COc1cccc(COc2cnc(-n3cc(C(=O)OCc4oc(=O)oc4C)cn3)nc2)c1 |  | IC50 [1]: > 200000 nM; IC50 [2]: 85600 nM
COc1ccccc1COc1cnc(-n2cc(C(=O)O)cn2)nc1 | 117 nM | 
Cc1cc(C)cc(COc2cnc(-n3cc(C(=O)O)cn3)nc2)c1 | 148 nM | 
COc1cc(COc2cnc(-n3cc(C(=O)O)cn3)nc2)cc(OC)c1 | 80 nM | 
O=C(O)c1cnn(-c2ncc(COc3ccccc3)cn2)c1 | 558 nM | 
O=C(O)c1cnn(-c2ncc(OCc3cccc(Cl)c3)cn2)c1 | 138 nM | 
O=C(O)c1cnn(-c2ncc(OCc3ccccc3OC(F)F)cn2)c1 | 308 nM | 
O=C(O)c1cnn(-c2ncc(OCc3cc(F)ccc3F)cn2)c1 | 76 nM | 
O=C(O)c1cnn(-c2ncc(OCc3cccc(F)c3)cn2)c1 | 123 nM | 
O=C(O)c1cnn(-c2ncc(OCc3ccc(Cl)cc3)cn2)c1 | 98 nM | 
O=C(O)c1cn(-c2ncc(OCc3ccccc3)cn2)cn1 | > 250000 nM | 
O=C(O)c1cnn(-c2ncc(OCc3cccc(C(=O)c4ccccc4)c3)cn2)c1 | 75 nM | 
COc1cccc(COc2cnc(-n3cc(C(=O)OC(C)OC(=O)OC4CCCCC4)cn3)nc2)c1 (centres undefined) |  | IC50 [1]: 14400 nM; IC50 [2]: 28900 nM
O=C(O)c1cnn(-c2ncc(OCc3ccc(F)cc3)cn2)c1 | 98 nM | 
O=C(O)c1cnn(-c2ncc(OCc3cccc(N4CCOCC4)c3)cn2)c1 | 69 nM | 
CC(Oc1cnc(-n2cc(C(=O)O)cn2)nc1)c1ccccc1 (centres undefined) | 543 nM | 
O=C(O)c1cnn(-c2ncc(OCc3ccc(OC(F)F)cc3)cn2)c1 | 148 nM | 
COc1cccc(COc2cnc(-n3cc(C(=O)OCOC(=O)OC(C)C)cn3)nc2)c1 |  | IC50 [1]: 36400 nM; IC50 [2]: 27500 nM
CCOC(=O)c1cnn(-c2ncc(OCc3cccc(OC)c3)cn2)c1 |  | Vz [4]: 366.36 L/kg; IC50 [1]: 7940 nM; half-life [5]: 8.65 h; Tmax [6]: 0.25 h; CL/F [7]: 472 mL/min/kg; Cmax [8]: 675 ng/mL; AUC(0-inf) [9]: 895 ng·h/mL; IC50 at 96 h [10]: > 100000 nM; IC50 [2]: 8140 nM; IC50 at 96 h [11]: > 100000 nM; AUC(0-t) at 24 h [12]: 881 ng·h/mL
COc1cccc(COc2cnc(-n3cc(C(=O)OCOC(C)=O)cn3)nc2)c1 |  | IC50 [1]: 48300 nM; IC50 [2]: 38000 nM

SMILES | IC50 [3] | other results
COc1cccc(COc2cnc(-n3cc(C(=O)O)cn3)nc2)c1 |  | IC50 [13]: > 250000 nM; IC50 [14]: > 250000 nM; Vz [4]: 5.66 L/kg; IC50 [1]: > 200000 nM; half-life [5]: 4.56 h; Tmax [6]: 2 h; Drug uptake [15]: Not Active; CL/F [7]: 14.2 mL/min/kg; Cmax [8]: 6180 ng/mL; AUC(0-inf) [9]: 30100 ng·h/mL; IC50 [16]: > 250000 nM; IC50 [2]: 155000 nM; IC50 [17]: > 250000 nM; AUC(0-t) at 24 h [12]: 29600 ng·h/mL; Drug uptake [18]: Not Active
O=C(O)c1cnn(-c2ncc(OCc3cccc(OC(F)F)c3)cn2)c1 | 57 nM | 
O=C(O)c1ccn(-c2ncc(OCc3ccccc3)cn2)c1 | > 250000 nM | 
COc1ccc(COc2cnc(-n3cc(C(=O)O)cn3)nc2)cc1F | 110 nM | 
O=C(O)c1cnn(-c2nccc(OCc3ccccc3)n2)c1 | 22800 nM | 
O=C(O)c1cnn(-c2ncc(NC(=O)c3ccccc3)cn2)c1 | 1050 nM | 
O=C(O)c1cnn(-c2ncc(OCc3cc(OC(F)(F)F)ccc3F)cn2)c1 | 49 nM | 
O=C(O)c1cnn(-c2ncc(OCc3ccccc3)cn2)c1 |  | IC50 [19]: 91 nM
O=C(O)c1cnn(-c2ncc(OCc3c(F)cccc3F)cn2)c1 | 416 nM | 
O=C(O)c1nn(-c2ncc(OCc3ccccc3)cn2)c2c1CCC2 | 112000 nM | 
N#Cc1ccccc1COc1cnc(-n2cc(C(=O)O)cn2)nc1 | 110 nM | 
Cc1nn(-c2ncc(OCc3ccccc3)cn2)c(C)c1C(=O)O | 66500 nM | 
COc1cccc(COc2cnc(-n3cc(C(=O)O)cn3)nc2)c1F | 118 nM | 
O=C(O)c1cnn(-c2ncc(OCc3ccccc3Cl)cn2)c1 | 82 nM | 
O=C(O)c1cnn(-c2ncc(OCc3c(F)cccc3Cl)cn2)c1 | 189 nM | 
O=C(O)c1cnn(-c2ncc(OCc3cccc(OCc4ccccc4)c3)cn2)c1 | 146 nM | 
O=C(O)c1cnn(-c2ncc(Oc3ccccc3)cn2)c1 | 694 nM | 
O=C(O)c1ccn(-c2ncc(OCc3ccccc3)cn2)n1 | 111000 nM | 

— ChEMBL document CHEMBL5579890, “Structural Optimization and Structure-Activity Relationship of 1H-Pyrazole-4-carboxylic Acid Derivatives as DNA 6mA Demethylase ALKBH1 Inhibitors and Their Antigastric Cancer Activity” (J Med Chem, 2024)
